System: MV-4-11 cells
Assay: Gene expression microarray analysis (Affymetrix PrimeView) and GSEA
Type: cell-based, human
Parameters: RFU PODN (11730768_x_at) / Fold change /veh PODN (11730768_x_at) / RFU LINC00158 (11744669_a_at) / Fold change /veh LINC00158 (11744669_a_at) / RFU DUSP10 (11751237_a_at) / Fold change /veh DUSP10 (11751237_a_at) / RFU ID3 (11757404_x_at) / Fold change /veh ID3 (11757404_x_at) / RFU PLEKHG5 (11737974_s_at) / Fold change /veh PLEKHG5 (11737974_s_at) / RFU LRRC4B (11730491_at) / Fold change /veh LRRC4B (11730491_at) / RFU GIMAP4 (11747438_a_at) / Fold change /veh GIMAP4 (11747438_a_at) / RFU KRT8 (11758183_x_at) / Fold change /veh KRT8 (11758183_x_at) / RFU CNN1 (11734310_a_at) / Fold change /veh CNN1 (11734310_a_at) / RFU VPS37D (11726825_at) / Fold change /veh VPS37D (11726825_at) / RFU C10orf10 (11716522_x_at) / Fold change /veh C10orf10 (11716522_x_at) / RFU KIR2DL2 /// KIR2DL4 /// KIR2DL5A /// KIR2DL5B /// KIR2DS1 /// KIR2DS2 /// KIR2DS3 /// KIR2DS4 /// KIR3DL3 /// KIR3DL3 /// KIR3DS1 (11738374_at) / Fold change /veh KIR2DL2 /// KIR2DL4 /// KIR2DL5A /// KIR2DL5B /// KIR2DS1 /// KIR2DS2 /// KIR2DS3 /// KIR2DS4 /// KIR3DL3 /// KIR3DL3 /// KIR3DS1 (11738374_at) / RFU C1QL1 (11718748_at) / Fold change /veh C1QL1 (11718748_at) / RFU TMPRSS4 (11747572_a_at) / Fold change /veh TMPRSS4 (11747572_a_at) / RFU HAMP (11756126_x_at) / Fold change /veh HAMP (11756126_x_at) / RFU RNFT2 (11725882_a_at) / Fold change /veh RNFT2 (11725882_a_at) / RFU NR4A2 (11747474_a_at) / Fold change /veh NR4A2 (11747474_a_at) / RFU ABCC12 (11746883_a_at) / Fold change /veh ABCC12 (11746883_a_at) / RFU TMEM136 (11760407_x_at) / Fold change /veh TMEM136 (11760407_x_at) / RFU CLDN22 /// WWC2 (11732394_at) / Fold change /veh CLDN22 /// WWC2 (11732394_at) / RFU HLA-DPB1 (11760878_x_at) / Fold change /veh HLA-DPB1 (11760878_x_at) / RFU SPINT1 (11716480_a_at) / Fold change /veh SPINT1 (11716480_a_at) / RFU GAP43 (11754022_s_at) / Fold change /veh GAP43 (11754022_s_at) / RFU A4GNT (11735810_at) / Fold change /veh A4GNT (11735810_at) / RFU PRB3 (11715151_x_at) / Fold change /veh PRB3 (11715151_x_at) / RFU TUBB4B (11761932_at) / Fold change /veh TUBB4B (11761932_at) / RFU CAPN14 (11732068_a_at) / Fold change /veh CAPN14 (11732068_a_at) / RFU TMCC2 (11721928_a_at) / Fold change /veh TMCC2 (11721928_a_at) / RFU IRGQ (11745062_a_at) / Fold change /veh IRGQ (11745062_a_at) / RFU FAM174B (11720279_a_at) / Fold change /veh FAM174B (11720279_a_at) / RFU TMPRSS4 (11748680_a_at) / Fold change /veh TMPRSS4 (11748680_a_at) / RFU FAM212B (11763350_a_at) / Fold change /veh FAM212B (11763350_a_at) / RFU PLEKHG5 (11743358_a_at) / Fold change /veh PLEKHG5 (11743358_a_at) / RFU ZSCAN30 (11745921_a_at) / Fold change /veh ZSCAN30 (11745921_a_at) / RFU CMKLR1 (11741424_a_at) / Fold change /veh CMKLR1 (11741424_a_at) / RFU LOC101060620 /// MAPK8IP1 (11723275_at) / Fold change /veh LOC101060620 /// MAPK8IP1 (11723275_at) / RFU SPTSSB (11747773_x_at) / Fold change /veh SPTSSB (11747773_x_at) / RFU PRSS12 (11739890_at) / Fold change /veh PRSS12 (11739890_at) / RFU BIN1 (11741810_x_at) / Fold change /veh BIN1 (11741810_x_at) / RFU WNT11 (11732464_a_at) / Fold change /veh WNT11 (11732464_a_at) / RFU C10orf10 (11716521_a_at) / Fold change /veh C10orf10 (11716521_a_at) / RFU C5orf56 (11738089_at) / Fold change /veh C5orf56 (11738089_at) / RFU CYB561 (11721691_x_at) / Fold change /veh CYB561 (11721691_x_at) / RFU ANKRD19P (11752326_a_at) / Fold change /veh ANKRD19P (11752326_a_at) / RFU OR2T12 /// OR2T33 /// OR2T8 (11738714_s_at) / Fold change /veh OR2T12 /// OR2T33 /// OR2T8 (11738714_s_at) / RFU VCAN (11748164_a_at) / Fold change /veh VCAN (11748164_a_at) / RFU JSRP1 (11732532_at) / Fold change /veh JSRP1 (11732532_at) / RFU KRTAP10-11 (11738290_x_at) / Fold change /veh KRTAP10-11 (11738290_x_at) / RFU MYO3A (11730013_a_at) / Fold change /veh MYO3A (11730013_a_at) / RFU EBF3 (11725865_a_at) / Fold change /veh EBF3 (11725865_a_at) / RFU CAMK2N1 (11719241_x_at) / Fold change /veh CAMK2N1 (11719241_x_at) / RFU C5orf56 (11738088_a_at) / Fold change /veh C5orf56 (11738088_a_at) / RFU OLFML3 (11715873_a_at) / Fold change /veh OLFML3 (11715873_a_at) / RFU LOC100653217 /// NTM (11731650_a_at) / Fold change /veh LOC100653217 /// NTM (11731650_a_at) / RFU MAPK11 (11762145_a_at) / Fold change /veh MAPK11 (11762145_a_at) / RFU FIZ1 (11724087_x_at) / Fold change /veh FIZ1 (11724087_x_at) / RFU OASL (11726364_x_at) / Fold change /veh OASL (11726364_x_at) / RFU SOX15 (11748057_x_at) / Fold change /veh SOX15 (11748057_x_at) / RFU CD79A (11719716_a_at) / Fold change /veh CD79A (11719716_a_at) / RFU HIST1H1D (11736915_at) / Fold change /veh HIST1H1D (11736915_at) / RFU CASKIN2 (11723855_a_at) / Fold change /veh CASKIN2 (11723855_a_at) / RFU LOC730098 (11760151_x_at) / Fold change /veh LOC730098 (11760151_x_at) / RFU OR4N2 (11742367_at) / Fold change /veh OR4N2 (11742367_at) / RFU PRRT2 (11749266_a_at) / Fold change /veh PRRT2 (11749266_a_at) / RFU SNX32 (11753110_a_at) / Fold change /veh SNX32 (11753110_a_at) / RFU CDHR5 (11726645_a_at) / Fold change /veh CDHR5 (11726645_a_at) / RFU RCAN1 (11760418_a_at) / Fold change /veh RCAN1 (11760418_a_at) / RFU FAM167A (11723789_a_at) / Fold change /veh FAM167A (11723789_a_at) / RFU FAM26E (11764081_at) / Fold change /veh FAM26E (11764081_at) / RFU ISYNA1 (11749810_s_at) / Fold change /veh ISYNA1 (11749810_s_at) / RFU ACY1 (11761880_at) / Fold change /veh ACY1 (11761880_at) / RFU 11764098_at / Fold change /veh 11764098_at / RFU SAMD14 (11745864_x_at) / Fold change /veh SAMD14 (11745864_x_at) / RFU NPB (11741838_a_at) / Fold change /veh NPB (11741838_a_at) / RFU TMPRSS6 (11731388_a_at) / Fold change /veh TMPRSS6 (11731388_a_at) / RFU KRTAP10-2 (11738614_at) / Fold change /veh KRTAP10-2 (11738614_at) / RFU ARHGAP8 /// PRR5-ARHGAP8 (11727945_x_at) / Fold change /veh ARHGAP8 /// PRR5-ARHGAP8 (11727945_x_at) / RFU KRTAP5-7 /// NADSYN1 (11734609_at) / Fold change /veh KRTAP5-7 /// NADSYN1 (11734609_at) / RFU RASL12 (11751679_a_at) / Fold change /veh RASL12 (11751679_a_at) / RFU CDKN2B (11736163_a_at) / Fold change /veh CDKN2B (11736163_a_at) / RFU PRF1 (11729649_at) / Fold change /veh PRF1 (11729649_at) / RFU, ZNF638 /// ZNF638-IT1 / Fold change vs veh, ZNF638 /// ZNF638-IT1 / RFU, PANK3 / Fold change vs veh, PANK3 / RFU, SH3YL1 / Fold change vs veh, SH3YL1 / RFU, ZEB2 / Fold change vs veh, ZEB2 / RFU, NRIP1 / Fold change vs veh, NRIP1 / RFU, PTTG1IP / Fold change vs veh, PTTG1IP / RFU, CAPN2 / Fold change vs veh, CAPN2 / RFU, MED14 / Fold change vs veh, MED14 / RFU, SNORA58 / Fold change vs veh, SNORA58 / RFU, C1orf63 / Fold change vs veh, C1orf63 / RFU, LRRFIP1 / Fold change vs veh, LRRFIP1 / RFU, NDUFAF7 / Fold change vs veh, NDUFAF7 / RFU, SLC12A2 / Fold change vs veh, SLC12A2 / RFU, IBTK / Fold change vs veh, IBTK / RFU, ESF1 / Fold change vs veh, ESF1 / Fold change vs veh, TMEM50B / RFU, TAOK1 / Fold change vs veh, TAOK1 / RFU, ACBD3 / Fold change vs veh, ACBD3 / RFU, TMA16 / Fold change vs veh, TMA16 / RFU, RWDD3 / Fold change vs veh, RWDD3 / RFU, BCAT1 / Fold change vs veh, BCAT1 / RFU, EDEM3 / Fold change vs veh, EDEM3 / RFU, TMEM33 / Fold change vs veh, TMEM33 / RFU, WDR75 / Fold change vs veh, WDR75 / RFU, AHCTF1 / Fold change vs veh, AHCTF1 / RFU, TFRC / Fold change vs veh, TFRC / RFU, ZDHHC17 / Fold change vs veh, ZDHHC17 / RFU, NOM1 / Fold change vs veh, NOM1 / RFU, ARL8B / Fold change vs veh, ARL8B / RFU, ZBTB11 / Fold change vs veh, ZBTB11 / RFU, TAMM41 / Fold change vs veh, TAMM41 / RFU, KIAA1704 /// LOC100996395 / Fold change vs veh, KIAA1704 /// LOC100996395 / RFU, ING1 / Fold change vs veh, ING1 / RFU, TRMT61B / Fold change vs veh, TRMT61B / RFU, FUBP3 / Fold change vs veh, FUBP3 / RFU, TP53 / Fold change vs veh, TP53 / RFU, TNKS2 / Fold change vs veh, TNKS2 / RFU, ZFP14 / Fold change vs veh, ZFP14 / RFU, ACTR2 / Fold change vs veh, ACTR2 / RFU, PPP3R1 / Fold change vs veh, PPP3R1 / RFU, PIK3R1 / Fold change vs veh, PIK3R1 / RFU, HNRNPA1 / Fold change vs veh, HNRNPA1 / RFU, RNF170 / Fold change vs veh, RNF170 / RFU, ZNF28 / Fold change vs veh, ZNF28 / RFU, RNGTT / Fold change vs veh, RNGTT / RFU, OGT / Fold change vs veh, OGT / RFU, BRD1 / Fold change vs veh, BRD1 / RFU, MARS / Fold change vs veh, MARS / RFU, ZNF655 / Fold change vs veh, ZNF655 / RFU, FAHD1 / Fold change vs veh, FAHD1 / RFU, BDP1 / Fold change vs veh, BDP1 / RFU, LRRCC1 / Fold change vs veh, LRRCC1 / RFU, ARID1A / Fold change vs veh, ARID1A / RFU, ZNF146 / Fold change vs veh, ZNF146 / RFU, ZNF330 / Fold change vs veh, ZNF330 / RFU, GPN3 / Fold change vs veh, GPN3 / RFU, C9orf123 / Fold change vs veh, C9orf123 / RFU, N4BP2L2 / Fold change vs veh, N4BP2L2 / RFU, ARFIP1 / Fold change vs veh, ARFIP1 / RFU, FAM179B / Fold change vs veh, FAM179B / RFU, BCL10 / Fold change vs veh, BCL10 / RFU, UHRF1BP1L / Fold change vs veh, UHRF1BP1L / RFU, BET1 / Fold change vs veh, BET1 / RFU, CNOT2 / Fold change vs veh, CNOT2 / RFU, ZNF268 / Fold change vs veh, ZNF268 / Fold change vs veh, ZNF507 / RFU, DGCR2 / Fold change vs veh, DGCR2 / RFU, WDSUB1 / Fold change vs veh, WDSUB1 / Fold change vs veh, HSP90B1 /// MIR3652 / RFU, ADSS / Fold change vs veh, ADSS / RFU, GK / Fold change vs veh, GK / RFU, ZNF148 / Fold change vs veh, ZNF148 / RFU, TAF9 / Fold change vs veh, TAF9 / RFU, SLC1A5 / Fold change vs veh, SLC1A5 / RFU, SLMO2 / Fold change vs veh, SLMO2 / RFU, ABCC4 / Fold change vs veh, ABCC4 / RFU, LOC101060439 /// RAP1B / Fold change vs veh, LOC101060439 /// RAP1B / RFU, RFX7 / Fold change vs veh, RFX7 / RFU, GTPBP10 / Fold change vs veh, GTPBP10 / RFU, CNEP1R1 / Fold change vs veh, CNEP1R1 / RFU, BIVM-ERCC5 /// ERCC5 / Fold change vs veh, BIVM-ERCC5 /// ERCC5 / RFU, ILF3 / Fold change vs veh, ILF3 / RFU 11762660_at / Fold change /veh 11762660_at / RFU VCAN (11757783_s_at) / Fold change /veh VCAN (11757783_s_at) / RFU DDX43 (11728927_at) / Fold change /veh DDX43 (11728927_at) / RFU KRT8 (11758188_x_at) / Fold change /veh KRT8 (11758188_x_at) / RFU NKD1 (11759106_at) / Fold change /veh NKD1 (11759106_at) / RFU SRD5A1 (11742802_a_at) / Fold change /veh SRD5A1 (11742802_a_at) / RFU TPSAB1 /// TPSB2 (11721975_s_at) / Fold change /veh TPSAB1 /// TPSB2 (11721975_s_at) / RFU GSTM3 (11746129_a_at) / Fold change /veh GSTM3 (11746129_a_at) / RFU IL23R (11737362_x_at) / Fold change /veh IL23R (11737362_x_at) / RFU TMEM51 (11727254_a_at) / Fold change /veh TMEM51 (11727254_a_at) / RFU PIWIL2 (11732686_x_at) / Fold change /veh PIWIL2 (11732686_x_at) / RFU ORM1 (11744905_x_at) / Fold change /veh ORM1 (11744905_x_at) / RFU CCDC152 (11743942_at) / Fold change /veh CCDC152 (11743942_at) / RFU ECM1 (11717891_a_at) / Fold change /veh ECM1 (11717891_a_at) / RFU IL23R (11748794_a_at) / Fold change /veh IL23R (11748794_a_at) / RFU TNFAIP8L3 (11732012_x_at) / Fold change /veh TNFAIP8L3 (11732012_x_at) / RFU MBOAT4 (11741988_at) / Fold change /veh MBOAT4 (11741988_at) / RFU 11764193_at / Fold change /veh 11764193_at / RFU TMEM53 (11763286_at) / Fold change /veh TMEM53 (11763286_at) / RFU MAGEB2 (11727129_at) / Fold change /veh MAGEB2 (11727129_at) / RFU TMEM200A (11744735_a_at) / Fold change /veh TMEM200A (11744735_a_at) / RFU CCDC152 (11751479_a_at) / Fold change /veh CCDC152 (11751479_a_at) / RFU FAM211A (11726209_a_at) / Fold change /veh FAM211A (11726209_a_at) / RFU RGS16 (11746705_a_at) / Fold change /veh RGS16 (11746705_a_at) / RFU VCAN (11755009_s_at) / Fold change /veh VCAN (11755009_s_at) / RFU RHOB (11743442_s_at) / Fold change /veh RHOB (11743442_s_at) / RFU RGS16 (11720943_a_at) / Fold change /veh RGS16 (11720943_a_at) / RFU RGS16 (11720944_at) / Fold change /veh RGS16 (11720944_at) / RFU, VPS4B / Fold change vs veh, VPS4B / RFU, CREB1 / Fold change vs veh, CREB1 / RFU, DNAJC13 / Fold change vs veh, DNAJC13 / RFU, GNAQ / Fold change vs veh, GNAQ / RFU, CDK5R1 / Fold change vs veh, CDK5R1 / RFU, ZRANB3 / Fold change vs veh, ZRANB3 / RFU, CUL4A / Fold change vs veh, CUL4A / RFU, CCNY / Fold change vs veh, CCNY / RFU, UFL1 / Fold change vs veh, UFL1 / RFU, COG3 / Fold change vs veh, COG3 / RFU, DIAPH2 / Fold change vs veh, DIAPH2 / RFU, SKA2 / Fold change vs veh, SKA2 / RFU, AFF3 / Fold change vs veh, AFF3 / RFU, LMF1 / Fold change vs veh, LMF1 / RFU, IPO11 / Fold change vs veh, IPO11 / RFU, DFFB / Fold change vs veh, DFFB / RFU, FOXP1 / Fold change vs veh, FOXP1 / RFU, CARD8 / Fold change vs veh, CARD8 / RFU, STRN3 / Fold change vs veh, STRN3 / RFU, ADK / Fold change vs veh, ADK / RFU, RASSF2 / Fold change vs veh, RASSF2 / RFU, WIPF1 / Fold change vs veh, WIPF1 / RFU, LARP1B / Fold change vs veh, LARP1B / RFU, RASA1 / Fold change vs veh, RASA1 / RFU, RB1 / Fold change vs veh, RB1 / RFU, PPFIA1 / Fold change vs veh, PPFIA1 / RFU, MAT2A / Fold change vs veh, MAT2A / RFU, CCT5 / Fold change vs veh, CCT5 / RFU, WDR92 / Fold change vs veh, WDR92 / RFU, CUX1 / Fold change vs veh, CUX1 / RFU, TTC7A / Fold change vs veh, TTC7A / RFU, TMEM135 / Fold change vs veh, TMEM135 / RFU, DEPTOR / Fold change vs veh, DEPTOR / RFU, CPM / Fold change vs veh, CPM / RFU, DNAJB6 / Fold change vs veh, DNAJB6 / RFU, CACNA2D3 / Fold change vs veh, CACNA2D3 / RFU, DTX4 / Fold change vs veh, DTX4 / RFU, TFCP2 / Fold change vs veh, TFCP2 / RFU, GMCL1 /// GMCL1P1 / Fold change vs veh, GMCL1 /// GMCL1P1 / RFU, AEBP2 / Fold change vs veh, AEBP2 / RFU, SNHG1 /// SNORD22 /// SNORD25 /// SNORD26 /// SNORD27 /// SNORD28 /// SNORD29 /// SNORD31 / Fold change vs veh, SNHG1 /// SNORD22 /// SNORD25 /// SNORD26 /// SNORD27 /// SNORD28 /// SNORD29 /// SNORD31 / Fold change (Aza/veh), C12orf56 (ProbeSet 11735607_a_at) / Fold change (ACY-1035/veh), C12orf56 (ProbeSet 11735607_a_at) / Fold change (Aza/veh), FGFR1OP (ProbeSet 11751329_s_at) / Fold change (ACY-1035/veh), FGFR1OP (ProbeSet 11751329_s_at) / Fold change (Aza/veh), VPS36 (ProbeSet 11739960_a_at) / Fold change (ACY-1035/veh), VPS36 (ProbeSet 11739960_a_at) / RFU SYPL1 (11715823_x_at) / Fold change /veh SYPL1 (11715823_x_at) / RFU IGFBP7 (11715501_s_at) / Fold change /veh IGFBP7 (11715501_s_at) / RFU REEP3 (11722064_at) / Fold change /veh REEP3 (11722064_at) / RFU IGLL1 (11728026_x_at) / Fold change /veh IGLL1 (11728026_x_at): dose or concentration left out as unconfirmed
Conditions: MV-4-11 cells, 48 hours

With `Nc1ccc(-c2cccs2)cc1NC(=O)c1ccc2c(c1)cc(C1CC1)n2CCN1CCOCC1` [ACY-1035] the “Fold change /veh JSRP1 (11732532_at)” value was 0.91.
